In US10780145B2, “In situ forming hydrogel and method using same” (Arizona Board of Regents on behalf of Arizona State …, priority 2011, dated 2020):

Key:
[1] = Solubility of vancomycin loaded into the polymer solution; format: physicochemical; details: loaded at 50 mg/mL
Experimental: To prepare a solution for antibiotic delivery, the materials can be sterilized (such as by ethylene oxide gas sterilization) and then dissolved in 150 mM phosphate buffered saline (pH 7.4). After dissolution of the polymer, drug powder (finely ground) is added directly to the polymer solution and vortex mixed to distribute the drug evenly throughout the solution. The solutions can be stored in a freezer until use and thawed at the time of use. The solution then can be injected, brushed, poured, sprayed, or otherwise administered as a liquid at the desired site. The solution can also be allowed to warm to above its initial LCST and then implanted as a soft hydrogel at the desired site. Examples of desired sites for delivery of this material might include the surface of a joint prosthesis, the intramedullary canal before implantation of a prosthesis, an infected area, or any location deemed to have a risk of future infection. An example formulation might be a 30 wt % polymer solution with approximately 50 mg vancomycin hydrochloride loaded per mL of polymer solution.
FIG. 7 graphically illustrates a fraction of loaded vancomycin released from Applicants' injectable and degradable terpolymer I based gels comprising poly(NIPAAm-co-DBLA-co-JAAm) gels loaded with either 50 mg or 5 mg per gel.

[2] = Swelling and degradation of gels in excess PBS (pH 7.4) at 37° C.; format: physicochemical
From the text: The control copolymer comprises […] of JAAm. […] These gels dissolve in approximately 20 weeks.
Gels flow when inverted after 7-10 days and dissolve completely within 2-3 weeks.

Compound	solubility in polymer solution [1]	Degradation time (37° C., pH 7.4) [2]
CN[C@H](CC(C)C)C(=O)N[C@H]1C(=O)N[C@@H](CC(N)=O)C(=O)N[C@H]2C(=O)N[C@H]3C(=O)N[C@H](C(=O)N[C@H](C(=O)O)c4cc(O)cc(O)c4-c4cc3ccc4O)[C@H](O)c3ccc(c(Cl)c3)Oc3cc2cc(c3O[C@@H]2O[C@H](CO)[C@@H](O)[C@H](O)[C@H]2O[C@H]2C[C@](C)(N)[C@H](O)[C@H](C)O2)Oc2ccc(cc2Cl)[C@H]1O [vancomycin]	Some vancomycin is insoluble	–
poly(NIPAAm-co-DBLA)	–	~20 weeks
